Experimental data from US9938299B2, “Glycosidase inhibitors and uses thereof” (MERCK SHARP & DOHME CORP., priority 2012, dated 2018).

Target: T1, human O-GlcNAcase (Homo sapiens, UniProt O60502)
T1 sequence (O60502 1-916): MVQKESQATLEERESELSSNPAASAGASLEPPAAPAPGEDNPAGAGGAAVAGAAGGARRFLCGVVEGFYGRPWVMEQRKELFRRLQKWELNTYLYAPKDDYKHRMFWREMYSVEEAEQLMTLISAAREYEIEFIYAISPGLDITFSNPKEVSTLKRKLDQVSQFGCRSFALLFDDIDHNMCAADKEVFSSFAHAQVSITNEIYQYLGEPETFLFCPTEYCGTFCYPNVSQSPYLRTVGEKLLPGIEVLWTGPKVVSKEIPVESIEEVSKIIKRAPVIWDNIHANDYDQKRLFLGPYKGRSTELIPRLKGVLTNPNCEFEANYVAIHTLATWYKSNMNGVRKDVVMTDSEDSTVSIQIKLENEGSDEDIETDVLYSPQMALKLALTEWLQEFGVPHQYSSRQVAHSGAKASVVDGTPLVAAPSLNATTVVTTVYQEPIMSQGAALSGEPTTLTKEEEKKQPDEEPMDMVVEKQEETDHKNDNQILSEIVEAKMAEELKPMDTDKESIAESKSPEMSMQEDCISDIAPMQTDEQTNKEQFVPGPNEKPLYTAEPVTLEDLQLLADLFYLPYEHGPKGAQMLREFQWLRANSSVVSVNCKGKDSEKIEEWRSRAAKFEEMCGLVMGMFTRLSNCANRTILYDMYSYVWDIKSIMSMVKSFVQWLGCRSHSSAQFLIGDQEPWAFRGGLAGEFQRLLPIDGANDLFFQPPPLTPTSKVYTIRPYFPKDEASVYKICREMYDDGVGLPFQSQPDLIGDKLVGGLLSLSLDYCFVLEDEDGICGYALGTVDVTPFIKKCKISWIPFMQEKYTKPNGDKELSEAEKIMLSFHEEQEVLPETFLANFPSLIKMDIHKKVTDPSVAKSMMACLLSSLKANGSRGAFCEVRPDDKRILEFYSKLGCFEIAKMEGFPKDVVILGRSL
Test: Determination of KI values for inhibition of O-GlcNAcase activity (fluorogenic 4-methylumbelliferyl GlcNAc substrate)
Type: biochemical
Settings: not given
Method: Assay for Determination of […] for Inhibition of O-GlcNAcase Activity
Experimental procedure for kinetic analyses: Enzymatic reactions were carried out in a reaction containing 50 mM NaH2PO4, 100 mM NaCl and 0.1% BSA (pH 7.0) using 2 mM 4-Methylumbelliferyl N-acetyl-β-D-glucosaminide dihydrate (Sigma M2133) dissolved in ddH2O, as a substrate. The amount of purified human O-GlcNAcase enzyme used in the reaction was 0.7 nM. Test compound of varying concentrations was added to the enzyme prior to initiation of the reaction. The reaction was performed at room temperature in a 96-well plate and was initiated with the addition of substrate. […] The slope of product production was determined for each concentration of compound tested and plotted, using standard curve fitting algorithms for sigmoidal dose response curves. The values for a four parameter logistic curve fit of the data were determined.

Row | SMILES | Ki [nM]
1 | CNC1=N[C@@H]2[C@@H](O)[C@H](O)C(C(C)=O)O[C@@H]2S1 (stereo partly drawn) [Example 38, 1-((3aR,6S,7R,7aR)-6,7-dihydroxy-2-(methylamino)-5,6,7,7a-tetrahydro-3aH-pyrano[3,2-d]thiazol-5-yl)ethanone] | 79
2 | CCNC1=N[C@@H]2[C@@H](O)[C@H](O)[C@@H](C(=O)OC)O[C@@H]2S1 [Example 53, (3aR,5S,6S,7R,7aR)-N-ethyl-6,7-clihydroxy-5-(methoxycarbonyl)-5,6,7,7a-tetrahydro-3aH-pyrano[3,2-d]thiazol-2-aminium chloride] | 480
3 | CCNC1=N[C@@H]2[C@@H](O)[C@H](O)[C@@H](C(=O)O)O[C@@H]2S1 [Example 52, (3aR,5S,6S,7R,7aR)-2-(ethylamino)-6,7-dihydroxy-5,6,7,7a-tetrahydro-3aH-pyrano[3,2-d]thiazole-5-carboxylic acid] | 27

Same assay, conditions: purified human O-GlcNAcase 0.7 nM, 2 mM substrate, pH 7.0, room temperature; Cheng-Prusoff; read-out: Ki

Row | Ki [nM] | SMILES
4 | 837 | C#C[C@H]1O[C@@H]2SC(NCC)=N[C@@H]2[C@@H](O)[C@@H]1O [Example 57, (3aR,5R,6S,7R,7aR)-2-(ethylamino)-5-ethynyl-5,6,7,7-tetrahydro-3aH-pyrano[3,2-d]thiazole-6,7-diol]
5 | 338 | CN(C)C1=N[C@@H]2[C@@H](O)[C@H](O)[C@@H]([C@](O)(Cc3ccccc3)C(F)(F)F)O[C@@H]2S1 [Example 25, (3aR,5S,6S,7R,7aR)-2-(dimethylamino)-5-((R)-1,1,1-trifluoro-2-hydroxy-3-phenylpropan-2-yl)-5,6,7,7a-tetrahydro-3aH-pyrano[3,2-d]thiazole-6,7-diol]
6 | 311 | CN(C)C(=O)CC[C@H]1O[C@@H]2SC(N(C)C)=N[C@@H]2[C@@H](O)[C@@H]1O [Example 33, 3-((3aR,5R,6S,7R,7aR)-2-(dimethylamino)-6,7-dihydroxy-5,6,7,7a-tetrahydro-3aH-pyrano[3,2-d]thiazol-5-yl)-N,N-dimethylpropanamide]
7 | 139 | CNC1=N[C@@H]2[C@@H](O)[C@H](O)[C@@H]([C@H](O)CCc3ccc(OC)cc3)O[C@@H]2S1 (single isomer, unassigned) [Example 6]
8 | 25.6 | CN(C)C1=N[C@@H]2[C@@H](O)[C@H](O)[C@@H]([C@@H](O)Cc3ccccc3)O[C@@H]2S1 [Example 21, (3aR,5R,6S,7R,7aR)-2-(dimethylamino)-5-((S)-1-hydroxy-2-phenylethyl)-5,6,7,7a-tetrahydro-3aH-pyrano[3,2-d]thiazole-6,7-diol]
9 | 68 | CNC1=N[C@@H]2[C@@H](O)[C@H](O)[C@@H](C(=O)OC)O[C@@H]2S1 [Example 37, (3aR,5S,6S,7R,7aR)-methyl 6,7-dihydroxy-2-(methylamino)-5,6,7,7a-tetrahydro-3aH-pyrano[3,2-d]-thiazole-5-carboxylate]
10 | 72 | CCOC(=O)/C=C/[C@H]1O[C@@H]2SC(NC)=N[C@@H]2[C@@H](O)[C@@H]1O [Example 5, (E)-ethyl 3-((3aR,5R,6S,7R,7aR)-6,7-dihydroxy-2-(methylamino)-5,6,7,7a-tetrahydro-3aH-pyrano[3,2-d]thiazol-5-yl)acrylate]
11 | 4.1 | CNC1=N[C@@H]2[C@@H](O)[C@H](O)[C@@H](CSCc3ccccc3)O[C@@H]2S1 [Example 61, (3aR,5S,6S,7R,7aR)-5-((benzylthio)methyl)-2-(methylamino)-5,6,7,7a-tetrahydro-3aH-pyrano[3,2-d]thiazole-6,7-diol]
12 | 20 | CN(C)C1=N[C@@H]2[C@@H](O)[C@H](O)[C@@H](C(=CCc3ccccc3)C(F)(F)F)O[C@@H]2S1 [Example 19, (3aR,5R,6S,7R,7aR)-2-(dimethylamino)-5-(1,1,1-trifluoro-4-phenylbut-2-en-2-yl)-5,6,7,7a-tetrahydro-3aH-pyrano[3,2-d]thiazole-6,7-diol]
13 | 139 | CNC1=N[C@@H]2[C@@H](O)[C@H](O)[C@@H]([C@@H](CCc3ccc(OC)cc3)C(F)(F)F)O[C@@H]2S1 [Example 17, (3aR,5R,65,7R,7aR)-2-(methylamino)-5-((R)-1,1,1-trifluoro-4-(4-methoxyphenyl)butan-2-yl)-5,6,7,7a-tetrahydro-3aH-pyrano[3,2-d]thiazole-6,7-diol]
14 | 505 | COc1ccc(CC[C@@H](O)[C@H]2O[C@@H]3SC(N(C)C)=N[C@@H]3[C@@H](O)[C@@H]2O)cc1 [Example 22, (3aR,5R,6S,7R,7aR)-2-(dimethylamino)-5-((R)-1-hydroxy-3-(4-methoxyphenyl)propyl)-5,6,7,7a-tetrahydro-3aH-pyrano[3,2-d]thiazole-6,7-diol]
15 | 370 | CCNC1=N[C@@H]2[C@@H](O)[C@H](O)[C@@H](C(=O)NC)O[C@@H]2S1 [Example 48, (3aR,5S,6S,7R,7aR)-2-(ethylamino)-6,7-dihydroxy-N-methyl-5,6,7,7a-tetrahydro-3aH-pyrano[3,2-d]thiazole-5-carboxamide]
16 | 6.4 | COc1ccc(CC[C@H](O)[C@H]2O[C@@H]3SC(N(C)C)=N[C@@H]3[C@@H](O)[C@@H]2O)cc1 [Example 23, (3aR,5R,6S,7R,7aR)-2-(dimethylamino)-5-((S)-1-hydroxy-3-(4-methoxyphenyl)propyl)-5,6,7,7a-tetrahydro-3aH-pyrano[3,2-d]thiazole-6,7-diol]
17 | 5.5 | CNC1=N[C@@H]2[C@@H](O)[C@H](O)[C@@H](C(=O)O)O[C@@H]2S1 [Example 36, (3aR,5S,6S,7R,7aR)-6,7-dihydroxy-2-(methylamino)-5,6,7,7a-tetrahydro-3aH-pyrano[3,2-d]thiazole-5-carboxylic acid]
18 | 1430 | CCNC(=O)[C@H]1O[C@@H]2SC(NC)=N[C@@H]2[C@@H](O)[C@@H]1O [Example 44, (3aR,5S,6S,7R,7aR)-N-ethy1-6,7-dihydroxy-2-(methylamino)-5,6,7,7a-tetrahydro-3aH-pyrano[3,2-d]thiazole-5-carboxamide]
19 | 109 | COc1ccc(CC[C@H]([C@H]2O[C@@H]3SC(N(C)C)=N[C@@H]3[C@@H](O)[C@@H]2O)C(F)(F)F)cc1 [Example 1, (3aR,5R,6S,7R,7aR)-2-(dimethylamino)-5-((R)-1,1,1-trifluoro-4-(4-methoxyphenyl)butan-2-yI)-5,6,7,7a-tetrahydro-3aH-pyrano[3,2-d]thiazole-6,7-diol]
20 | 10.1 | C=C(C)[C@H]1O[C@@H]2SC(NC)=N[C@@H]2[C@@H](O)[C@@H]1O [Example 14, (3aR,5R,6S,7R,7aR)-2-(methylamino)-5-(prop-1-en-2-yl)-5,6,7,7a-tetrahydro-3aH-pyrano[3,2-d]thiazole-6,7-diol 2,2,2-trifluoroacetate]
21 | 24 | CNC1=N[C@@H]2[C@@H](O)[C@H](O)[C@@H]([C@@](O)(CCc3ccc(OC)cc3)C(F)(F)F)O[C@@H]2S1 (single isomer, unassigned) [Example 9]
22 | 69 | CNC1=N[C@@H]2[C@@H](O)[C@H](O)[C@@H](C(F)(F)CCc3ccc(OC)cc3)O[C@@H]2S1 [Example 10, (3aR,5S,6S,7R,7aR)-5-(1,1-difluoro-3-(4-methoxyphenyl)propyl)-2-(methylamino)-5,6,7,7a-tetrahydro-3aH-pyrano[3,2-d]thiazole-6,7-diol]
23 | 9.3 | CCNCC[C@H]1O[C@@H]2SC(NC)=N[C@@H]2[C@@H](O)[C@@H]1O [Example 55, (3aR,5R,6S,7R,7aR)-5-(2-(ethylamino)ethyl)-2-(methylamino)-5,6,7,7a-tetrahydro-3aH-pyrano[3,2-d]thiazole-6,7-diol]
24 | 142 | COc1ccc(CC[C@](O)([C@H]2O[C@@H]3SC(N(C)C)=N[C@@H]3[C@@H](O)[C@@H]2O)C(F)(F)F)cc1 [Example 30, (3aR,5S,6S,7R,7aR)-2-(dimethylamino)-5-(1,1,1-trifluoro-2-hydroxy-4-(4-methoxyphenyl)butan-2-yl)-5,6,7,7a-tetrahydro-3aH-pyrano[3,2-d]thiazole-6,7-diol]
25 | 2880 | CCNC(=O)[C@H]1O[C@@H]2SC(NCC)=N[C@@H]2[C@@H](O)[C@@H]1O [Example 50, (3aR,5S,6S,7R,7aR)-N-ethyl-2-(ethylamino)-6,7-dihydroxy-5,6,7,7a-tetrahydro-3aH-pyrano[3,2-d]thiazole-5-carboxamide]
26 | 207 | CN(C)C1=N[C@@H]2[C@@H](O)[C@H](O)[C@@H](C(C)(C)Cl)O[C@@H]2S1 [Example 56, (3aR,5S,6S,7R,7aR)-5-(2-chloropropan-2-yl)-2-(dimethylamino)-5,6,7,7a-tetrahydro-3aH-pyrano[3,2-d]thiazole-6,7-diol]
